Values joined by “and” are separate entries in the source; they are usually repeats but may differ in a detail not shown here. Equal values may be shown once.
Legend:
[1] = Microsomal bioavailability (Table 2); assay type: in vitro ADME; conditions: read-out: Microsomal bioavailability F (%)
ERα [2] = target: T1, ERα (Homo sapiens, UniProt P03372); assay: Competitive 3H-estradiol binding assay, ERα; conditions: 1 nM 3H-estradiol, HEK293T cytosolic extract; read-out: Binding ERα pKi (converted)
T1 sequence (P03372 1-595): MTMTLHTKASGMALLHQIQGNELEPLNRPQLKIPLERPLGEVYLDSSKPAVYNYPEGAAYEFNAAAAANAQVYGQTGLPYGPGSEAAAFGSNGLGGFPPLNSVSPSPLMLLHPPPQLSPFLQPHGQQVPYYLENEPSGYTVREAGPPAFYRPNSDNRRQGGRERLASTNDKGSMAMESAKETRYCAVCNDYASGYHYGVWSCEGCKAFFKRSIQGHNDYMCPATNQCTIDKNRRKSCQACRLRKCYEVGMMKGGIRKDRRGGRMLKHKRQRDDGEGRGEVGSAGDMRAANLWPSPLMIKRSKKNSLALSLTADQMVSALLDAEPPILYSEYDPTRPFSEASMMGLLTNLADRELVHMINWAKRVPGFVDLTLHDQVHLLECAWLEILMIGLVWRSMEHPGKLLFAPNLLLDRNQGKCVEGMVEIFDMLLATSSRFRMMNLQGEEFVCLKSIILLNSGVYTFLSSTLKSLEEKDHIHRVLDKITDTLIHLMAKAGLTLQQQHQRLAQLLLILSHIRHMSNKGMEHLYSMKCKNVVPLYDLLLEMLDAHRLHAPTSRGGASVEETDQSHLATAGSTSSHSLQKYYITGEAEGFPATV
Description: (§1) HEK293T cells were transiently transfected for 48 hours with expression vectors encoding ERα or ERβ, before being serum starved for 4-6 hours. Cells were then harvested by scraping in ice-cold PBS and subsequently lysed using a cold buffer containing 10 mM Tris pH 7.4, 1 mM EDTA, 1 mM DTT before being subjected to polytron twice for 10 seconds. Cytosolic extracts were isolated by centrifugation at 15000 g for 30 minutes at 4° C. Competitive binding of the test compounds or the estradiol control was performed on 20 μL extract by overnight incubation at 4° C. in a total volume of 100 μL containing 1 nM ^3H-estradiol (Perkin Elmer, Boston, Mass.). The bound fraction was separated from the unbound one by the addition of 100 μL of Dextran coated charcoal, incubated for 10 minutes and subsequent centrifugation at 1000 rpm for 10 minutes. Samples (100 μL per sample) were then analyzed by liquid scintillation. Data was then analyzed using the curve fitting software GraphPad Prism.

[3] = Metabolic stability in liver microsomes, human; assay type: in vitro ADME; conditions: low value = metabolically stable
Description: (§2) Also the metabolic stability in liver microsomes was tested for some compounds.

[4] = Metabolic stability in liver microsomes, rat; assay type: in vitro ADME; conditions: low value = metabolically stable
Description: as §2

ERβ [5] = target: T2, ERβ (Homo sapiens, UniProt Q92731); assay: R-SAT functional assay, ERβ; assay type: cell-based; design: expressed in transfected cells; host or cells: transient transfection
Description: (§3) R-SAT® (Receptor Selection and Amplification Technology) is a cell-based functional assay that allows one to monitor receptor-dependent proliferative responses and has been described elsewhere. […] This process is achieved by partial cellular transformation via loss of contact inhibition and growth factor dependency. Monitoring is achieved by transfecting the cells with a β-galactosidase reporter gene vector whose expression is under a constitutively active promoter. Briefly, NIH-3T3 fibroblasts were plated overnight in 96-wells plates in DMEM 10% calf serum (Hyclone) and grown to 60-70% confluency prior to transfection. Transient transfections were performed using Polyfect (Qiagen) according to manufacturer's instructions. Typically a transfection mix would consist of the receptor and the β-galactosidase expression vectors. Sixteen hours post-transfection, cells were incubated with different doses of ligand in DMEM containing 30% Ultraculture (Hyclone) and 0.4% calf serum (Hyclone) to generate a dose response curve. […] Plates were read using a microplate reader at 420 nm. Data from R-SAT® assays were fit to the equation: r=A+B(x/(x+c)), where A=minimum response, B=maximum response minus minimum response, c=EC50, r=response, and x=concentration of ligand. Curves were generated using the curve fitting softwares Excel Fit and GraphPad Prism (San Diego, Calif.). Luciferase Reporter Gene Assay

ERα [6] = target: T1, ERα; assay: Luciferase reporter gene assay (3*ERE) in HEK293 cells, ERα; assay type: cell-based; design: expressed in transfected cells; host or cells: transient transfection; conditions: 48 hours; for EC50: na = not active, read-out: Luciferase Erα pEC50 (converted)
Description: (§4) HEK293 cells were grown to 70% confluency in DMEM containing 10% calf serum (Hyclone) prior to transfection. On the day of transfection (day 1), expression vectors for ERα or ERβ were cotransfected along a construct containing a synthetic 3*ERE upstream of the luciferase gene (Panomics), using Polyfect (Qiagen) per manufacturer's recommendations (ERE being estrogen response element). Sixteen hours post-transfection, cells were incubated in serum free DMEM. […] Cells extracts were then obtained by lyzing and the Luciferase activity measured, all of these steps performed using a commercially available kit (Promega).

ERβ [7] = target: T2, ERβ; assay: R-SAT functional assay, ERβ; assay type: cell-based; design: expressed in transfected cells; host or cells: transient transfection; remark: listed apart in the source
ERβ [8] = target: T2, ERβ; assay: Luciferase reporter gene assay (3*ERE) in HEK293 cells, ERβ; assay type: cell-based; design: expressed in transfected cells; host or cells: HEK293 cells, transient transfection; conditions: for Emax: read-out: Luciferase Erβ % Eff
Description: as §4

ERβ [9] = target: T2, ERβ; assay: Competitive 3H-estradiol binding assay, ERβ; design: expressed in transfected cells; host or cells: HEK293 cells, transient transfection
Description: as §1, with “Cells” for “HEK293T cells were transiently transfected for 48 hours with expression vectors encoding ERα or ERβ, before being serum starved for 4-6 hours. Cells”

ERα [10] = target: T1, ERα; assay: R-SAT functional assay, ERα; assay type: cell-based; design: expressed in transfected cells; host or cells: NIH-3T3 fibroblasts, transient transfection; conditions: NIH-3T3 cells; for EC50: na = not active, read-out: R-SAT Erα pEC50 (converted)
Description: as §3

Taxol-induced allodynia = assay: Taxol-induced neuropathy model; assay type: in vivo, male SD rats; conditions: for effect on Taxol-induced allodynia: s.c. (gabapentin i.p.), Compound 8 at 10 and 30 mg/kg, 2 hours post-dose
Description: Neuropathy was induced in male SD rats by 4×1 mg/kg consecutive daily doses of taxol as described (Naguib M, Diaz P, Xu J J, Astruc-Diaz F, Craig S, Vivas-Mejia P, Brown D L. MDA7: a novel selective agonist for CB2 receptors that prevents allodynia in rat neuropathic pain models. Br J. Pharmacol. 2008 December; 155(7):1104-16). The presence of tactile allodynia (von Frey filament 50% response threshold of <5 g) was confirmed prior to inclusion in the study. Drugs were administered sub-cutaneously (s.c.) except gabapentin was given intra-peritoneally (i.p.). Doses are given in mg/kg. * p<0.05.
Allodynia was assessed by applying a light tactile stimulus (Von Frey hairs) to the plantar surface of the surgical paw until the 50% threshold was established. A positive response was recorded if the paw was sharply withdrawn. Eight VonFrey hairs were used (3.61, 3.84, 4.08, 4.31, 4.56, 4.74, 4.93 and 5.18). MPE (%) was calculated as [(Rdrug−Rveh)/(Rsham−Rveh)]*100% where Rveh was 4 and Rsham was 13. Repeat dosing (FIG. 10C) was performed by administering the indicated doses of Compound 8 once daily via the s.c. route. Efficacy was measured 2 hours post-dose.

[11] = Unidirectional permeability across MatTek EpiOral buccal tissue; assay type: in vitro ADME, human; conditions: test compound 10 μM co-dosed with controls atenolol and caffeine 100 μM, DPBS pH 7.4, 37° C.
Description: EpiOral→tissues plated in 24-well plates were obtained from MatTek Corporation (Ashland, Mass., USA). The assay buffer was Dulbeccos' Phosphate Buffered Saline (DPBS) without Ca & Mg chloride, pH 7.4. Each test compound was co-dosed with the two control compounds. Targeting dosing concentrations were 10 μM for each test compound and 100 μM for the two control compounds. Prior to the permeability assay onset, the tissues were preequilibrated in a pre-warmed EpiOral assay medium for one hour at 37° C. in a 5% CO2 incubator. The EpiOral assay medium was aspirated after the pre-equilibration, and the tissues were washed twice with the DPBS buffer. The receiver chambers were filled with 0.75 mL of the DPBS buffer, while the donor chambers received 0.4 mL of the dosing solutions. The assay plates were placed at 37° C. in a 5% CO2 incubator. The receiver samples (200 μL) were collected at 30, 60, and 120 minutes, and replaced with an equal volume of fresh pre-warmed receiver buffer (except for the last time point of 120 minutes). The donor sides were sampled at 0 and 120 minutes. The test compounds were then analyzed using LC-MS/MS.

[12] = NIH3T3, read-out: R-SAT Erβ % Eff
[13] = NIH3T3, NIH-3T3 cells, read-out: R-SAT Erβ % Eff

T2 sequence (Q92731 whole entry, species assumed): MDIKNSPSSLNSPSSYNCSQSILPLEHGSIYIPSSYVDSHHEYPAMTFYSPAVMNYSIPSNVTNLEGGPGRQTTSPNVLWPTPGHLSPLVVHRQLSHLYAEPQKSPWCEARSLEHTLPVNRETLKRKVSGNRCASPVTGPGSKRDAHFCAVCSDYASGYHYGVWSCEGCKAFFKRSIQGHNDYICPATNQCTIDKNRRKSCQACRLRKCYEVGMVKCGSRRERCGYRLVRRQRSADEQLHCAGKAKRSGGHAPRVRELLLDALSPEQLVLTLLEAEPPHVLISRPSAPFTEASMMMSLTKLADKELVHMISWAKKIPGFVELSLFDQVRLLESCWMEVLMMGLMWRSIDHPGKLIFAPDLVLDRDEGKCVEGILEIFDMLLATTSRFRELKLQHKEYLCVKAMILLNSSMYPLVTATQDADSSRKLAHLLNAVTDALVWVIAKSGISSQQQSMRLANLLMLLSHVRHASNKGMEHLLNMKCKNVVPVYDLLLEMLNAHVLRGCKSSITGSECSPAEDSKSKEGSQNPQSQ

SMILES | Microsomal bioavailability (predicted from microsomes) [1] | Ki (ERα [2]) | microsomal CLint [3] | microsomal CLint [4] | Emax (ERβ [5]; [12]) | Luciferase Erα % Eff (ERα [6]) | EC50 (ERβ [7]) | EC50 (ERβ [8]) | Emax (ERβ [8]; HEK293, 48 h) | Ki (ERβ [9]) | R-SAT Erα % Eff (ERα [10]) | EC50 (ERα [10]) | Emax (ERβ [5]; [13]) | Emax (ERβ [8]; HEK293 cells, 48 hours) | EC50 (ERα [6]) | effect on Taxol-induced allodynia (Taxol-induced allodynia) | apparent permeability coefficient (Papp) across MatTek EpiOral buccal tissues [11] | maximum effect (MPE) (Taxol-induced allodynia; gabapentin i.p.)
COc1ccc(C2(c3ccccc3F)CCC(F)(F)CC2)cc1 [Compound 9, 1-(4,4-Difluoro-1-(4-methoxyphenyl)cyclohexyl)-2-fluorobenzene] | 19.6% | – | – | – | – | – | – | – | – | – | – | – | – | – | – | – | – | –
Oc1ccc(C2(c3ccccc3F)CCC(F)(F)CC2)cc1F [Compound 10, 4-(4,4-Difluoro-1-(2-fluorophenyl)cyclohexyl)-2-fluorophenol] | – | 251 nM | 11 µL/min/mg | 95 µL/min/mg | 57% | 2% | 2.51 nM | 2 nM | 55% | 5.01 nM | 100% | 1000 nM | – | – | – | – | – | –
Oc1ccc(C2(c3ccccc3Cl)CCC(F)(F)CC2)cc1 [Compound 12] | – | 100 nM | – | 147 µL/min/mg | – | 30% | 3.16 nM | 0.631 nM | – | 3.98 nM | 74% | – | 42% | 74% | – | – | – | –
Oc1ccc(C2(c3ccccc3Cl)CCC(F)(F)CC2)cc1F [Compound 14] | – | 50.1 nM | – | 113 µL/min/mg | 60% | 82% | 1.58 nM | 0.631 nM | 52% | 3.98 nM | 145% | 100 nM | – | – | – | – | – | –
Oc1ccc(C2(c3ccccc3F)CCCCC2)cc1 [Compound 152] | – | – | 27 µL/min/mg | 405 µL/min/mg | – | 48% | 12.6 nM | 20 nM | – | 63.1 nM | 29% | 1580 nM | 69% | 126% | 3980 nM | – | – | –
Oc1ccc(C2(c3ccccc3Cl)CCCCC2)cc1 [Compound 558] | 2% | 1000 nM | – | – | – | 37% | 6.31 nM | 2.51 nM | – | 50.1 nM | 48% | 1260 nM | 73% | 101% | 1580 nM | – | – | –
N#CC(Cc1ccc(O)cc1)c1ccc(O)cc1 (stereo not drawn) [DPN] | – | – | – | – | – | – | – | – | – | – | – | – | – | – | – | active | – | –
Cn1c(=O)c2c(ncn2C)n(C)c1=O [caffeine] | – | – | – | – | – | – | – | – | – | – | – | – | – | – | – | – | 27.5 ×10⁻⁶ cm/s and 22.3 ×10⁻⁶ cm/s | –
NCC1(CC(=O)O)CCCCC1 [gabapentin] | – | – | – | – | – | – | – | – | – | – | – | – | – | – | – | relatively ineffective | – | 39%
